Test results taken from patent publication US20230232830A1, “METHOD FOR REDUCING OR PREVENTING EFFECT OF NON-BIOLOGICAL STRESS ON PLANT” (NIPPON SODA CO., LTD., priority 2020, published 2023).

Key:
[1] = system: corn; experiment: Bioassay 1, drought stress, corn test (foliage spray, degree of withering); assay type: in vivo; conditions: 200 ppm foliage spray; for Withering Index: 2 to 3 leaf stage, 2 days at 25° C., aerial parts cut out, four stages (0: healthy to 3: complete withering), average of test series
Method: (§1) A 5-membered heterocyclyl compound dissolved in DMF was diluted with water so that the concentration of the compound was 200 ppm, and a sufficient amount of the diluted solution was foliage-sprayed on corn and soybean at the 2 to 3 leaf stage.
(§2) Corn and soybean foliage-sprayed with a sufficient amount of a diluted solution prepared by removing the compound were used as the untreated plot.
(§3) The sprayed test plants were cultivated for 2 days under the conditions of a temperature of 25° C. and a day length of 14 hours.
(§4) The aerial parts were cut out and the corn or soybean of the untreated plot was left to stand until completely withered. The degree of withering was investigated from the perspective of four stages (0: healthy to 3: complete withering).
As for corn, it refers to a bent state.
(§5) Abscisic acid was used as a control. Abscisic acid (ABA), known as a plant hormone, is produced by the plant itself and is known as an important signal substance that closes the stomata during drought stress to suppress excessive transpiration of water from the leaves, and induces stress tolerance.
The index of ABA indicates the average of the results of a series of 10 tests. The index of the 5-membered heterocyclyl compounds (A) to (F) indicates the average of the results of a series of 2 tests.

[2] = system: soybean; experiment: Bioassay 1, drought stress, soybean test (foliage spray, degree of withering); assay type: in vivo; conditions: 200 ppm foliage spray; for Withering Index: 2 to 3 leaf stage, 2 days at 25° C., aerial parts cut out, four stages (0: healthy to 3: complete withering), average of test series
Method: as §1, §2, §3, §4
Here, with respect to soybean, complete withering refers to a state in which all the leaves of the soybean are withered and the upper part is curved.
as §5
The index of ABA indicates the average of the results of a series of 10 tests. The index of the 5-membered heterocyclyl compound (F) indicates the average of the results of a series of 2 tests.

[3] = system: Arabidopsis thaliana; experiment: Bioassay 2, salt stress, survival of Arabidopsis thaliana plants in 150 mM NaCl; assay type: in vivo; conditions: 168 h, 5 ppm compound for 1 day, then 150 mM NaCl for 7 days, green individuals alive, yellowed or bleached dead, read-out: Survival Rate (%)
Method: Arabidopsis thaliana seeds were sterilized with 70% ethanol and then sown in a petri dish containing HYPONeX (sterilized) diluted 4,000 times with water. The compound was diluted with sterile water so that the concentration of the compound dissolved in DMSO was 5 ppm. 65 μl of each drug solution was dispensed into a 96-well microplate, into which 5 Arabidopsis thaliana plants on their 8th day of sowing were placed and left to stand for 1 day. The next day, the plants were transferred to a well containing 65 μl of 150 mM NaCl and cultured for 7 days. The treatment was performed in two series, and in the investigation, a stereomicroscope was used to determine their survival, with the green individuals identified as alive and the yellowed or bleached individuals as dead.

Row | SMILES | Withering Index [1] | responders at 5 ppm [3] [%] | also measured
1 | CC1=CC(=O)CC(C)(C)[C@@]1(O)/C=C/C(C)=C\C(=O)O [ABA, Abscisic acid, reference compound] | 1.1 |  | Withering Index [2]: 0.5
2 | N#CCON=C1CN(C(=O)Cc2ccc(-c3noc(C(F)(F)F)n3)cc2)C1 [A] | 1.5 |  | 
3 | CCON=C1CN(C(=O)C(OC)c2ccc(-c3noc(C(F)(F)F)n3)cc2)C1 (centres unmarked) [B] | 1.5 |  | 
4 | O=c1cccnn1Cc1ccc(-c2noc(C(F)(F)F)n2)cc1 [C] | 1.5 |  | 
5 | CCON=C1CN(C(=O)C(OC)c2ccc(-c3noc(C(F)(F)F)n3)cc2F)C1 (centres unmarked) [Compound 1] |  | 80 | 
6 | C=CCON=C1CN(C(=O)Cc2ccc(-c3noc(C(F)(F)F)n3)cc2)C1 [Compound 2] |  | 70 | 
7 | CON=C1CN(c2cc(=O)n(Cc3ccc(-c4noc(C(F)(F)F)n4)cc3)cn2)C1 [Compound 3] |  | 70 | 
8 | O=c1cc(OCc2ccc(-c3noc(C(F)(F)F)n3)cc2)ccn1CC1CC1 [Compound 4] |  |  | Withering Index [2]: 1.5; melting point: 115 to 117 °C
9 | CSc1nccc(OCc2ccc(-c3noc(C(F)(F)F)n3)cc2)n1 [Compound 5] |  | 80 | 
10 | FC(F)(F)c1nc(-c2ccc(COc3cc(Cl)ncn3)cc2)no1 [Compound 6] | 1.0 |  | melting point: 144 to 146 °C
11 | FC(F)(F)c1nc(-c2ccc(COc3cc(-n4cncn4)ncn3)cc2)no1 [Compound 7] |  | 70 | 
12 | CC(=NOC/C=C/Cl)c1ccc(C2=NOC(O)(C(F)(F)F)C2)cc1 (centres unmarked) [Compound 8] | 1.5 |  | melting point: 126 to 128 °C
13 | CON=C(C)c1ccc(C2=NOC(OC)(C(F)(F)F)C2)cc1 (centres unmarked) [Compound 9] | 1.5 |  | melting point: 80 to 82 °C
14 | COc1cncn(Cc2ccc(-c3noc(C(F)(F)F)n3)cc2)c1=O [Compound 10] | 1.0 |  | melting point: 119 to 120 °C
15 | COCCn1cccc(OCc2ccc(-c3noc(C(F)(F)F)n3)cc2)c1=O [Compound 11] | 1.0 |  | melting point: 127 to 130 °C
16 | O=C(c1ccc(-c2noc(C(F)(F)F)n2)cc1)N1CCCCC1 [D] | 1.5 | 80 | 
17 | CC1(NC(=O)c2ccc(-c3noc(C(F)(F)F)n3)cc2)CC1 [E] | 1.5 |  | 
18 | O=C(NC12CC(C1)C2)c1ccc(-c2noc(C(F)(F)F)n2)cc1 [F] | 0.5 |  | reduction of drought stress compared with ABA ([1]; result in words): showed an index higher than that of ABA; Withering Index [2]: 1.5; reduction of drought stress compared with ABA ([2]; result in words): reduces the drought stress, although to a lesser extent than ABA
19 | CCON=C1CN(C(=O)C(C)c2ccc(-c3noc(C(F)(F)F)n3)cc2)C1 (centres unmarked) [G] |  | 80 | 
20 | Cc1nc(C)n(Cc2ccc(-c3noc(C(F)(F)F)n3)cc2)c(=O)c1Cl [H] | 1.5 |  | 
21 | O=c1c(Cl)c(Cl)cnn1Cc1ccc(-c2noc(C(F)(F)F)n2)cc1 [J] | 1.0 |  | 
22 | O=C(NC1CC1)c1ccn(Cc2ccc(-c3noc(C(F)(F)F)n3)cc2)n1 [K] | 1.0 |  | 
23 | CCOC(=O)c1ccnn1Cc1ccc(-c2noc(C(F)(F)F)n2)cc1 [L] |  |  | Withering Index [2]: 1.5
24 | O=C1CCCCN1Cc1ccc(-c2noc(C(F)(F)F)n2)cc1 [M] |  | 70 | 
